# Results as given in patent EP1800684A1, “Novel alkyl phospholipid derivatives and uses thereof” (Zentaris GmbH, priority 2005, dated 2007).
# Assays:
# Assay type in all cases: cell-based
# [1] = test system: Aspergillus fumigatus (strain 322-384); experiment: Anti-fungal susceptibility test (microdilution), fungus I; conditions: Aspergillus fumigatus, no visible growth after 72 hours at 35° C, read-out: MIC
# Method: (§1) The antifungal activities of the test compounds (compounds of the invention and known prior art compounds) were measured according to standard microdilution methods (Cryptococcus/Aspergillus: Ghannoum et al., Journal of Clinical Microbiology 1992, 30 (11): 2881-2886; Candida: Reference method for broth dilution susceptibility testing of yeast: proposed standard, NCCLS document M27-P, National Committee for Clinical Laboratory Standards 1992, Villanova, Pa).
# (§2) A serial dilution series starting from 64 µg/mL test compound per well down to 0.125 µg/mL test compound per well was applied for each test compound on each fungus. The MIC of each compound was defined as the concentration which produces no visible growth after 48 hours (Candida) and 72 hours (Cryptococcus, Aspergillus) of culture at 35° C.
# (§3) The following fungi were assessed: • A) Candida albicans (ATCC 10231) • B) Candida albicans (ATCC 90028) • C) Candida albicans (strain TS3, Shrikantha et al., Journal of Bacteriology 2000, 182(6):1580-1591) • D) Candida parapsilosis (ATCC 22019) • E) Cryptocoocus neoformans (ATCC 90112) • F) Cryptocoocus neoformans (strain H99; Ganendren et al., Antimicrobial Agents and Chemotherapy, 2004, 48(5):1561-1569) • G) Cryptocoocus gattii (ATCC 32608) • H) Aspergillus fumigatus (ATCC 204305) • I) Aspergillus fumigatus (strain 322-384)
# [2] = test system: Aspergillus fumigatus (ATCC 204305); experiment: Anti-fungal susceptibility test (microdilution), fungus H; conditions: Aspergillus fumigatus, ATCC204305, no visible growth after 72 hours at 35° C, read-out: MIC
# Method: as §1, §2, §3
# [3] = test system: Plasmodium falciparum (strain K1); experiment: In vitro drug susceptibility assay, protozoon C (3[H]-hypoxanthine method)
# Method: Plasmodium falciparum strain K1 and strain 3D7 parasites were cultured according to Trager W and Jensen JB (Science 1976, 193: 673-675). In vitro drug susceptibility assays with the test compounds were carried out according to Korsinczky M et al. (Antimicrobial agents and chemotherapy 2000, 44(8): 2100-2108) and Fivelman QL et al. (Antimicrobial agents and chemotherapy 2004, 48(11): 4097-4102) using a ^3[H]-hypoxanthine radioisotope method. ED50 values were calculated with Msxlfit (IDBS).
# The following protozoa were assessed: • A) Trypanosoma cruzi (Tulahuan-LACZ amstigotes in PEM, Lorente SO et al., Antimicrobial agents and chemotherapy 2004, 48(8): 2937-2950; Buckner et al., Infection and Immunity 1999, 67(1): 403-409; Buckner et al., Antimicrobial Agents and Chemotherapy 1996, 40(11): 2592-2597) • B) Trypanosoma brucei rhodesiense (strain STIB900, Lorente SO et al., Antimicrobial agents and chemotherapy 2004, 48(8): 2937-2950; Habtemariam S, BMC Pharmacology 2003, 3:6) • C) Plasmodium falciparum (strain K1, Korsinczky M et al., Antimicrobial agents and chemotherapy 2000, 44(8): 2100-2108; Thaitong S and Beale GH, Trans. R. Soc. Trop. Med. Hyg. 1981, 75: 271-273; Trager W and Jensen JB, Science 1976, 193: 673-675) • D) Plasmodium falciparum (strain 3D7, Mu et al., PLoS Biology 2005, 3(10): e335)
# [4] = test system: KB/HeLa (ATCC CCL17, human cervix carcinoma); experiment: XTT cytotoxicity assay, KB/HeLa cells; conditions: 48 h, 2 days of continuous drug exposure
# Method: Human tumor cell lines KB/HeLa (ATCC CCL17, human cervix carcinoma), PC3 (ATCC CRL1435, human prostate carcinoma) and RKOp21 (human colon adenocarcinoma) cells were used in an automated XTT screening assay for the assessment of cytotoxicity.
# The XTT assay quantifies cellular metabolic activity which correlates with cell viability and cell number. Test compounds (selected compounds of the invention and known substances as controls) are dissolved in culture medium at 600µM and added to the tumor cells in 10 different concentrations in a semi-logarithmic fashion starting from 100 µM as highest concentration.
# 48h later cellular metabolic activity of cells treated with test compounds is quantified by measurement of the absorbance at 490nm (conversion of XTT dye) in comparison to untreated control cells (100% viability).
# KB/HeLa and PC3 cells were cultivated in RPMI medium supplemented with 10% heat inactivated fetal calf serum, 2 mM glutamine, 100 U/ml penicillin, and 100 µg/ml streptomycin. RKOp21 cells were grown in DMEM supplemented with 10% heat inactivated fetal calf serum, 2 mM glutamine, 100 U/ml penicillin, and 100 µg/ml streptomycin. All cells were cultured at 37°C in 5% CO2 humidified air.
# On the first day of the experiment cells were harvested from exponential phase cultures by trypsination, counted and plated into 96 well flat-bottom micro titer plates depending on the cell line as listed below:
# After a 24h recovery to allow the cells to resume exponential growth, the test compounds were diluted immediately prior to use and transferred in 25µl volume to the wells.
# Following 2 days of continuous drug exposure 50µl of freshly prepared XTT-PMS solution (2% […] PMS in PBS + 98% 1 mg/ml XTT in RPMI 1640 without phenol red) was added to the wells. To measure the proportion of living cells, the cells were incubated for 3 h with XTT-PMS reagent at 37°C, 5% CO2, humidified atmosphere allowing to form the formazan salt. The amount of soluble formazan salt produced by cellular reduction of XTT is quantified by measuring the absorbance at 490nm using the Biomek® 2000 ELISA plate reader.
# %-inhibition (cytotoxicity) of each test compound was calculated in relation to untreated control cells. Inhibition curves were generated and IC50 values calculated by using GraphPad Prism.
# [5] = test system: Candida albicans (ATCC 10231); experiment: Anti-fungal susceptibility test (microdilution), fungus A; conditions: Candida albicans, ATCC10231, no visible growth after 48 hours at 35° C, read-out: MIC
# Method: as §1, §2, §3
# [6] = test system: Cryptocoocus neoformans (strain H99); experiment: Anti-fungal susceptibility test (microdilution), fungus F; conditions: fungus F; no visible growth after 72 hours at 35° C; read-out: MIC
# Method: as §1, §2, §3
# [7] = test system: Cryptocoocus neoformans (ATCC 90112); experiment: Anti-fungal susceptibility test (microdilution), fungus E; conditions: fungus E; no visible growth after 72 hours at 35° C; read-out: MIC
# Method: as §1, §2, §3
# [8] = test system: Candida albicans (ATCC 90028); experiment: Anti-fungal susceptibility test (microdilution), fungus B; conditions: Candida albicans, ATCC90028, no visible growth after 48 hours at 35° C, read-out: MIC
# Method: as §1, §2, §3
smiles,measurement,setting,value
"CCCCCCCCCCCCCCCCOP(=O)([O-])OCC[N+]1(C)CCCCC1 [Compound 2, Phosphoric acid 2-(1-methyl-piperidin-1-yl)-ethyl ester hexadecyl ester]",MIC,[1],2 µg/mL
same,MIC,[2],2 µg/mL
same,ED50 (µg/mL),[3],"19,36 µg/mL"
same,IC50,[4],5.02 µM
same,MIC,[5],1 µg/mL
same,MIC,[6],1 µg/mL
same,MIC,[7],1.5 µg/mL
same,MIC,[8],1 µg/mL
